These results are taken from US10106556B2, “Heterocyclic compound” (TAKEDA PHARMACEUTICAL COMPANY LIMITED, priority 2015, dated 2018).

The assay deals with T1, His-hMAGL (recombinant polyhistidine tagged human MAGL protein) (Homo sapiens, UniProt Q99685).
T1 construct: made in house; host or cells: E. coli BL21(DE3)
T1 sequence (Q99685 1-303): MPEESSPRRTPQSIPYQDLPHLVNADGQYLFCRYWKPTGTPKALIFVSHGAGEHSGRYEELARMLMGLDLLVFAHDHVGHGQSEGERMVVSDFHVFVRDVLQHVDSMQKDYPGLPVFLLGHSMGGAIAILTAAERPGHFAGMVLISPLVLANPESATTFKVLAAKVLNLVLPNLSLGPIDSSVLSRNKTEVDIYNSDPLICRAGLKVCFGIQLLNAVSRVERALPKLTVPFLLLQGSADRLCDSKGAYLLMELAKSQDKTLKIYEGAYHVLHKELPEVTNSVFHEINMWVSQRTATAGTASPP
Kind of assay: Measurement of MAGL inhibitory activity (arachidonic acid production from 2-arachidonylglycerol, RapidFire-mass spectrometry). It is filed as biochemical. The following applies: MAGL inhibitory rate at 10 μM test compound; 60 min preincubation with His-hMAGL, 2-arachidonylglycerol substrate, 10 min reaction at room temperature. A digest of the protocol: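 Inhibition (%) was derived from arachidonic acid levels relative to enzyme-free and compound-free groups. Product was measured by online C4 solid-phase extraction and triple-quadrupole MS in negative SRM mode, corrected by arachidonic acid-d8 (3 μM in the acetonitrile added). Substrate was 2-arachidonylglycerol; enzyme was His-tagged recombinant human MAGL.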
One may read the inhibition as the change of the read-out against control, counted positive when it falls. Take `O=C1COc2cc(F)c(C(=O)N3CC(COc4ccc5[nH]ncc5c4)C3)cc2N1` [Example 156, 7-fluoro-6-((3-((1H-indazol-5-yloxy)methyl)azetidin-1-yl)carbonyl)-2H-1,4-benzoxazin-3(4H)-one]: the inhibition at 10 µM came to 100%.

Consider `O=C1COc2cc(F)c(C(=O)N3CC(COc4ccc5cn[nH]c5c4)C3)cc2N1` [Example 157, 7-fluoro-6-((3-((1H-indazol-6-yloxy)methyl)azetidin-1-yl)carbonyl)-2H-1,4-benzoxazin-3(4H)-one], for which the inhibition at 10 µM was determined as 100%.

Take `O=C1COc2cc(F)c(C(=O)N3CC(COc4ccc(F)c(F)c4)C3)cc2N1` [Example 158, 6-((3-((3,4-difluorophenoxy)methyl)azetidin-1-yl)carbonyl)-7-fluoro-2H-1,4-benzoxazin-3(4H)-one]: the inhibition at 10 µM was 103%.

With `CC(C)c1ccc(OCC2CN(C(=O)c3cc4c(cc3F)OCC(=O)N4)C2)cc1` [Example 159, 7-fluoro-6-((3-((4-isopropylphenoxy)methyl)azetidin-1-yl)carbonyl)-2H-1,4-benzoxazin-3(4H)-one], the inhibition at 10 µM was determined as 103%.

`CC(C)c1ccccc1OCC1CN(C(=O)c2cc3c(cc2F)OCC(=O)N3)C1` [Example 160, 7-fluoro-6-((3-((2-isopropylphenoxy)methyl)azetidin-1-yl)carbonyl)-2H-1,4-benzoxazin-3(4H)-one]: the inhibition at 10 µM was 100%.

On to `Cc1ccc(OCC2CN(C(=O)c3cc4c(cc3F)OCC(=O)N4)C2)cc1` [Example 161, 7-fluoro-6-((3-((4-methylphenoxy)methyl)azetidin-1-yl)carbonyl)-2H-1,4-benzoxazin-3(4H)-one], for which the inhibition at 10 µM was 102%.

As to `Cc1cccc(OCC2CN(C(=O)c3cc4c(cc3F)OCC(=O)N4)C2)c1` [Example 162, 7-fluoro-6-((3-((3-methylphenoxy)methyl)azetidin-1-yl)carbonyl)-2H-1,4-benzoxazin-3(4H)-one], the inhibition at 10 µM is 102%.

Take `Cc1ccc(OCC2CN(C(=O)c3cc4c(cc3F)OCC(=O)N4)C2)cc1C` [Example 163, 6-((3-((3,4-dimethylphenoxy)methyl)azetidin-1-yl)carbonyl)-7-fluoro-2H-1,4-benzoxazin-3(4H)-one]: the inhibition at 10 µM came out at 100%.

Consider `Cc1ccc(OCC2CN(C(=O)c3cc4c(cc3F)OCC(=O)N4)C2)c(F)c1` [Example 164, 7-fluoro-6-((3-((2-fluoro-4-methylphenoxy)methyl)azetidin-1-yl)carbonyl)-2H-1,4-benzoxazin-3(4H)-one], for which the inhibition at 10 µM was determined as 102%.

For `Cc1ccc(OCC2CN(C(=O)c3cc4c(cc3F)OCC(=O)N4)C2)c(C)c1` [Example 165, 6-((3-((2,4-dimethylphenoxy)methyl)azetidin-1-yl)carbonyl)-7-fluoro-2H-1,4-benzoxazin-3(4H)-one], the inhibition at 10 µM was 103%.

On to `O=C1COc2cc(F)c(C(=O)N3CC(COc4ccccc4C4CCCC4)C3)cc2N1` [Example 166, 6-((3-((2-cyclopentylphenoxy)methyl)azetidin-1-yl)carbonyl)-7-fluoro-2H-1,4-benzoxazin-3(4H)-one], for which the inhibition at 10 µM was determined as 98%.

Consider `CC(C)(C)c1ccccc1OCC1CN(C(=O)c2cc3c(cc2F)OCC(=O)N3)C1` [Example 167, 6-((3-((2-tert-butylphenoxy)methyl)azetidin-1-yl)carbonyl)-7-fluoro-2H-1,4-benzoxazin-3(4H)-one], for which the inhibition at 10 µM turned out to be 100%.

With `O=C1COc2cc(F)c(C(=O)N3CC(COc4ccccc4C4CC4)C3)cc2N1` [Example 168, 6-((3-((2-cyclopropylphenoxy)methyl)azetidin-1-yl)carbonyl)-7-fluoro-2H-1,4-benzoxazin-3(4H)-one], the inhibition at 10 µM came to 101%.

For `O=C1COc2cc(F)c(C(=O)N3CC(COc4ccc5ccccc5c4)C3)cc2N1` [Example 169, 7-fluoro-6-((3-((2-naphthyloxy)methyl)azetidin-1-yl)carbonyl)-2H-1,4-benzoxazin-3(4H)-one], the inhibition at 10 µM was determined as 97%.

As for `O=C1COc2cc(F)c(C(=O)N3CC(COc4ccc5ncccc5c4)C3)cc2N1` [Example 170, 7-fluoro-6-((3-((quinolin-6-yloxy)methyl)azetidin-1-yl)carbonyl)-2H-1,4-benzoxazin-3(4H)-one], the inhibition at 10 µM was 104%.

`O=C1COc2cc(F)c(C(=O)N3CC(COc4ccc5cccnc5c4)C3)cc2N1` [Example 171, 7-fluoro-6-((3-((quinolin-7-yloxy)methyl)azetidin-1-yl)carbonyl)-2H-1,4-benzoxazin-3(4H)-one]: the inhibition at 10 µM worked out at 98%.

`O=C1COc2cc(F)c(C(=O)N3CC(COc4ccc5ccncc5c4)C3)cc2N1` [Example 172, 7-fluoro-6-((3-((isoquinolin-7-yloxy)methyl)azetidin-1-yl)carbonyl)-2H-1,4-benzoxazin-3(4H)-one]: the inhibition at 10 µM is 100%.

In the case of `O=C1COc2cc(F)c(C(=O)N3CC(COc4ccc5cnccc5c4)C3)cc2N1` [Example 173, 7-fluoro-6-((3-((isoquinolin-6-yloxy)methyl)azetidin-1-yl)carbonyl)-2H-1,4-benzoxazin-3(4H)-one], the inhibition at 10 µM turned out to be 98%.

As to `COc1ccccc1-c1ccccc1OCC1CN(C(=O)c2cc3c(cc2F)OCC(=O)N3)C1` [Example 174, 7-fluoro-6-((3-(((2′-methoxybiphenyl-2-yl)oxy)methyl)azetidin-1-yl)carbonyl)-2H-1,4-benzoxazin-3(4H)-one], the inhibition at 10 µM amounted to 102%.

For `O=C1COc2cc(F)c(C(=O)N3CC(COc4ccc(Cl)cc4-c4nnco4)C3)cc2N1` [Example 175, 6-((3-((4-chloro-2-(1,3,4-oxadiazol-2-yl)phenoxy)methyl)azetidin-1-yl)carbonyl)-7-fluoro-2H-1,4-benzoxazin-3(4H)-one], the inhibition at 10 µM was 97%.

Consider `CCc1ccc(-c2ccnc(C)c2OCC2CN(C(=O)c3cc4c(cc3F)OCC(=O)N4)C2)nc1` [Example 176, 6-((3-(((5-ethyl-2′-methyl-2,4′-bipyridin-3′-yl)oxy)methyl)azetidin-1-yl)carbonyl)-7-fluoro-2H-1,4-benzoxazin-3(4H)-one], for which the inhibition at 10 µM is 95%.

For `Cc1nccc(-c2ccccn2)c1OCC1CN(C(=O)c2cc3c(cc2F)OCC(=O)N3)C1` [Example 177, 7-fluoro-6-((3-(((2′-methyl-2,4′-bipyridin-3′-yl)oxy)methyl)azetidin-1-yl)carbonyl)-2H-1,4-benzoxazin-3(4H)-one], the inhibition at 10 µM amounted to 91%.

With `Cc1cc(OCC2CN(C(=O)c3cc4c(cc3F)OCC(=O)N4)C2)n(-c2ccccn2)n1` [Example 178, 7-fluoro-6-((3-(((3-methyl-1-(pyridin-2-yl)-1H-pyrazol-5-yl)oxy)methyl)azetidin-1-yl)carbonyl)-2H-1,4-benzoxazin-3(4H)-one], the inhibition at 10 µM is 94%.

As for `O=C1COc2cc(F)c(C(=O)N3CC(COc4noc5ccc(Cl)cc45)C3)cc2N1` [Example 180, 6-((3-(((5-chloro-1,2-benzoxazol-3-yl)oxy)methyl)azetidin-1-yl)carbonyl)-7-fluoro-2H-1,4-benzoxazin-3(4H)-one], the inhibition at 10 µM is 96%.

With `O=C1COc2cc(F)c(C(=O)N3CC(COc4ccc5nccn5c4-c4ccc(F)cc4)C3)cc2N1` [Example 181, 7-fluoro-6-((3-(((5-(4-fluorophenyl)imidazo[1,2-a]pyridin-6-yl)oxy)methyl)azetidin-1-yl)carbonyl)-2H-1,4-benzoxazin-3(4H)-one], the inhibition at 10 µM stood at 99%.
